This note sets out measurements from patent US9242984B2, “Pyrazolyl derivatives as Syk inhibitors” (Merck Sharp & Dohme Corp., priority 2012, dated 2016).

Read-outs that look alike come from different tables or passages of the source.

The target in this test is T1, recombinant human Syk (GST-hSyk fusion protein) (Homo sapiens, UniProt P43405).
T1 construct: purchased Carna Biosciences 08-176
Put plainly: Homogeneous Time-Resolved Fluorescence (HTRF) assay for the recombinant human Syk enzyme. Format: biochemical. The settings on record: 10-dose titration, 25 μM ATP. As for the experimental part: Syk inhibition may be determined using the following assay protocol:
Homogeneous Time-Resolved Fluorescence (HTRF) Assay for the Recombinant Human Syk Enzyme:
A recombinant GST-hSyk fusion protein was used to measure potency of compounds to inhibit human Syk activity. The recombinant human GST-Syk (Carna Biosciences #08-176) (5 pM final concentration) was incubated with various concentrations of the inhibitor diluted in DMSO (0.1% final concentration) for 10 minutes at room temperature in 15 mM Tris-HCl (pH 7.5), 0.01% tween 20, 2 mM DTT in 384 well plate format. To initiate the reaction the biotinylated substrate peptide (250 nM final concentration) that contains the phosphorylation site for Syk was added with magnesium (5 mM final concentration) and ATP (25 μM final concentration). Final volume of the reaction was 10 μL. Phosphorylation of the peptide was allowed to proceed for 45 minutes at room temperature. To quench the reaction and detect the phosphorylated product, 2 nM of a Europium-anti-phosphotyrosine antibody (Perkin Elmer #AD0161) and 70 nM SA-APC (Perkin-Elmer #CR130-100) were added together in 15 mM Tris pH 7.5, 40 mM EDTA, 0.01% tween 20. Final volume of the quenching solution was 10 μL. The resulting HTRF signal was measured after 30 minutes on an EnVision (Perkin-Elmer) reader using a time-resolved fluorescence protocol. IC50 was determined following 10-dose titration (10 μM to 0.508 nM) and four parameter logistic curve fitting using the Merck Assay Data Analyzer. The rhSyk activity (IC50) is expressed as +++(100 nM or less), ++(between 100 and 1000 nM), +(between 1 and 10 μM).
(In general: In TR-FRET formats the signal depends on donor and acceptor labels being close together.)

Where [1] appears, read: IC50 class, read-out: rhSYK Activity.

On to `Cc1cc(Nc2nccc(C(F)(F)F)n2)cc(-c2cnn(CC3OC(=O)NC3C(C)C)c2)c1` (single isomer, unassigned) [Example 23.5, 4-(1-methylethyl)-5-{[4-(3-methyl-5-{[4-(trifluoromethyl)pyrimidin-2-yl]amino}phenyl)-1H-pyrazol-1-yl]methyl}-1,3-oxazolidin-2-one], for which, under setting [1], the IC50 was no more than 100 nM.
For the molecule `Cc1cc(Nc2nccc(C(F)(F)F)n2)cc(-c2cnn(CC3OC(=O)NC3C(C)C)c2)c1` (single isomer, unassigned) [Example 23.6, 4-(1-methylethyl)-5-{[4-(3-methyl-5-{[4-(trifluoromethyl)pyrimidin-2-yl]amino}phenyl)-1H-pyrazol-1-yl]methyl}-1,3-oxazolidin-2-one], the IC50 under setting [1] is no more than 100 nM.
For `Cc1cc(Nc2nccc(C)n2)cc(-c2cnn(CC3OC(=O)NC3C)c2)c1` (single isomer, unassigned) [Example 23.7, 4-methyl-5-[(4-{3-methyl-5-[(4-methylpyrimidin-2-yl)amino]phenyl}-1H-pyrazol-1-yl)methyl]-1,3-oxazolidin-2-one], the IC50 under setting [1] is no more than 100 nM.
For `Cc1cc(Nc2nccc(C)n2)cc(-c2cnn(CC3OC(=O)NC3C)c2)c1` (single isomer, unassigned) [Example 23.8, 4-methyl-5-[(4-{3-methyl-5-[(4-methylpyrimidin-2-yl)amino]phenyl}-1H-pyrazol-1-yl)methyl]-1,3-oxazolidin-2-one], under setting [1], the IC50 is no more than 100 nM.
For the molecule `Cc1cc(Nc2nccc(C(F)F)n2)cc(-c2cnn(CC3OC(=O)NC3C)c2)c1` (single isomer, unassigned) [Example 23.9, 5-{[4-(3-{[4-(difluoromethyl)pyrimidin-2-yl]amino}-5-methylphenyl)-1H-pyrazol-1-yl]methyl}-4-methyl-1,3-oxazolidin-2-one], the IC50 under setting [1] was no more than 100 nM.
As to `Cc1cc(Nc2nccc(C(F)F)n2)cc(-c2cnn(CC3OC(=O)NC3C)c2)c1` (single isomer, unassigned) [Example 23.10, 5-{[4-(3-{[4-(difluoromethyl)pyrimidin-2-yl]amino}-5-methylphenyl)-1H-pyrazol-1-yl]methyl}-4-methyl-1,3-oxazolidin-2-one], the IC50 under setting [1] is no more than 100 nM.
On to `Cc1cc(Nc2nccc(C(C)(F)F)n2)cc(-c2cnn(CC3OC(=O)NC3C)c2)c1` (single isomer, unassigned) [Example 23.12, 5-{[4-(3-{[4-(1,1-difluoroethyl)pyrimidin-2-yl]amino}-5-methylphenyl)-1H-pyrazol-1-yl]methyl}-4-methyl-1,3-oxazolidin-2-one], for which the IC50 under setting [1] is no more than 100 nM.
On the same count and under the same terms, the result for `Cc1cc(Nc2nccc(C(F)F)n2)cc(-c2cnn(CC3OC(=O)NC3C)c2)c1` (single isomer, unassigned) [Example 23.13, 5-{[4-(3-{[4-(difluoromethyl)pyrimidin-2-yl]amino}-5-methylphenyl)-1H-pyrazol-1-yl]methyl}-4-methyl-1,3-oxazolidin-2-one] reads no more than 100 nM; that for `Cc1cc(Nc2nccc(C(F)F)n2)cc(-c2cnn(CC3OC(=O)NC3C)c2)c1` (single isomer, unassigned) [Example 23.14, 5-{[4-(3-{[4-(difluoromethyl)pyrimidin-2-yl]amino}-5-methylphenyl)-1H-pyrazol-1-yl]methyl}-4-methyl-1,3-oxazolidin-2-one], no more than 100 nM; that for `Cc1cc(Nc2nccc(C)n2)cc(-c2cnn(CC3OC(=O)NC3C(C)C)c2)c1` (single isomer, unassigned) [Example 23.15, 4-(1-methylethyl)-5-[(4-{3-methyl-5-[(4-methylpyrimidin-2-yl)amino]phenyl}-1H-pyrazol-1-yl)methyl]-1,3-oxazolidin-2-one], no more than 100 nM.
In the case of `Cc1cc(Nc2nccc(C)n2)cc(-c2cnn(CC3OC(=O)NC3C(C)C)c2)c1` (single isomer, unassigned) [Example 23.16, 4-(1-methylethyl)-5-[(4-{3-methyl-5-[(4-methylpyrimidin-2-yl)amino]phenyl}-1H-pyrazol-1-yl)methyl]-1,3-oxazolidin-2-one], under setting [1], the IC50 was no more than 100 nM.
Turning to `Cc1cc(Nc2nccc(C(F)F)n2)cc(-c2cnn(CC3OC(=O)NC3C3CC3)c2)c1` (single isomer, unassigned) [Example 23.18, 4-cyclopropyl-5-{[4-(3-{[4-(difluoromethyl)pyrimidin-2-yl]amino}-5-methylphenyl)-1H-pyrazol-1-yl]methyl}-1,3-oxazolidin-2-one], the IC50 under setting [1] is no more than 100 nM.
With `Cc1cc(Nc2nccc(C(F)F)n2)cc(-c2cnn(CC3OC(=O)NC3C3CC3)c2)c1` (single isomer, unassigned) [Example 23.19, 4-cyclopropyl-5-{[4-(3-{[4-(difluoromethyl)pyrimidin-2-yl]amino}-5-methylphenyl)-1H-pyrazol-1-yl]methyl}-1,3-oxazolidin-2-one], the IC50 under setting [1] was no more than 100 nM.
With `Cc1cc(Nc2ncc(F)c(C(F)F)n2)cc(-c2cnn(CC3OC(=O)NC3C)c2)c1` (single isomer, unassigned) [Example 23.20, 5-{[4-(3-{[4-(difluoromethyl)-5-fluoropyrimidin-2-yl]amino}-5-methylphenyl)-1H-pyrazol-1-yl]methyl}-4-methyl-1,3-oxazolidin-2-one], under setting [1], the IC50 was no more than 100 nM.
Regarding `Cc1cc(Nc2ncc(F)c(C(F)F)n2)cc(-c2cnn(CC3OC(=O)NC3C)c2)c1` (single isomer, unassigned) [Example 23.21, 5-{[4-(3-{[4-(difluoromethyl)-5-fluoropyrimidin-2-yl]amino}-5-methylphenyl)-1H-pyrazol-1-yl]methyl}-4-methyl-1,3-oxazolidin-2-one], the IC50 under setting [1] was no more than 100 nM.
For the molecule `Cc1cc(Nc2nccc(C(F)F)n2)cc(-c2cnn(CC(C)(O)C(F)(F)F)c2)c1` (single isomer, unassigned) [Example 24.1, (S or R)-3-(4-(3-((4-(difluoromethyl)pyrimidin-2-yl)amino)-5-methylphenyl)-1H-pyrazol-1-yl)-1,1,1-trifluoro-2-methylpropan-2-ol], the IC50 by setting is: (read-out: rhSYK IC50) 2.6 nM; under setting [1], no more than 100 nM.
Take `Cc1cc(Nc2nccc(C(F)F)n2)cc(-c2cnn(CC(C)(O)C(F)(F)F)c2)c1` (single isomer, unassigned) [Example 24.2, (S or R)-3-(4-(3-((4-(difluoromethyl)pyrimidin-2-yl)amino)-5-methylphenyl)-1H-pyrazol-1-yl)-1,1,1-trifluoro-2-methylpropan-2-ol]: the IC50 runs as follows: (read-out: rhSYK IC50) 6.2 nM; under setting [1], no more than 100 nM.
For `Cc1cc(Nc2nccc(C(F)F)n2)cc(-c2cnn(CC(O)(CO)C(F)(F)F)c2)c1` (single isomer, unassigned) [Example 25.1, 2-((4-(3-((4-(Difluoromethyl)pyrimidin-2-yl)amino)-5-methylphenyl)-1H-pyrazol-1-yl)methyl)-3,3,3-trifluoropropane-1,2-diol] the same measures were 3.2 nM and no more than 100 nM.
For `Cc1cc(Nc2nccc(C)n2)cc(-c2cnn(CC(C)(O)CO)c2)c1` (single isomer, unassigned) [Example 25.2, 2-methyl-3-(4-{3-methyl-5-[(4-methylpyrimidin-2-yl)amino]phenyl}-1H-pyrazol-1-yl)propane-1,2-diol], the IC50 under setting [1] was no more than 100 nM.
